Assay results published in PubChem BioAssay (NCI).
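How tested: cells in 96-well plates exposed to compound for 48 hours at five concentrations. GI50 marks 50% less growth. At the TGI there is no net growth.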

What was measured:
Assay in all cases: growth of human tumour cells (NCI), 48 h
[1] = system: UO-31 renal
[2] = system: SF-268 CNS
[3] = system: SW-620 colon
[4] = system: HS 578T breast
[5] = system: EKVX NSCLC
[6] = system: MALME-3M melanoma
[7] = system: HT29 colon
[8] = system: SR leukemia
[9] = system: OVCAR-5 ovarian
[10] = system: SF-539 CNS
[11] = system: NCI/ADR-RES ovarian
[12] = system: TK-10 renal
[13] = system: A549 NSCLC
[14] = system: BT-549 breast
[15] = system: ACHN renal
[16] = system: MOLT-4 leukemia
[17] = system: OVCAR-8 ovarian
[18] = system: PC-3 prostate
[19] = system: M14 melanoma
[20] = system: COLO 205 colon
[21] = system: UACC-257 melanoma
[22] = system: U251 CNS
[23] = system: HL-60(TB) leukemia
[24] = system: MDA-MB-435
[25] = system: MCF7 breast
[26] = system: SK-MEL-5 melanoma
[27] = system: SK-MEL-28 melanoma
[28] = system: SK-MEL-2 melanoma
[29] = system: CCRF-CEM leukemia
[30] = system: MDA-MB-231 breast
[31] = system: NCI-H522 lung
[32] = system: SN12C renal
[33] = system: DU-145 prostate
[34] = system: NCI-H460 lung
[35] = system: OVCAR-3 ovarian
[36] = system: HCT-15 colon
[37] = system: HOP-92 NSCLC
[38] = system: UACC-62 melanoma
[39] = system: NCI-H226 lung
[40] = system: RPMI-8226 leukemia
[41] = system: SK-OV-3 ovarian
[42] = system: SNB-19 CNS
[43] = system: RXF 393 renal
[44] = system: SF-295 CNS
[45] = system: K-562 leukemia
[46] = system: HOP-62 NSCLC
[47] = system: MDA-MB-468 breast
[48] = system: CAKI-1 renal
[49] = system: OVCAR-4 ovarian
[50] = system: LOX IMVI melanoma
[51] = system: NCI-H23 lung
[52] = system: A498 renal
[53] = system: IGROV1 ovarian
[54] = system: T-47D breast
[55] = system: 786-0 renal
[56] = system: HCC-2998 colon
[57] = system: KM12 colon
[58] = system: HCT-116 colon
[59] = system: SNB-75 CNS

C=CC(=O)Nc1ccc(C(=O)/C=C/c2ccc(N(C)C)cc2)c(O)c1
GI50 [1]: 1.31 µM
TGI [1]: 14.3 µM
GI50 [2]: 4 µM
TGI [2]: 22.9 µM
GI50 [3]: 1.67 µM
TGI [3]: 3.89 µM
GI50 [4]: 3.26 µM
TGI [4]: > 100 µM
GI50 [5]: 5.76 µM
TGI [5]: 25.8 µM
GI50 [6]: 2.19 µM
TGI [6]: 10.6 µM
GI50 [7]: 2.37 µM
TGI [7]: 7.08 µM
GI50 [8]: 1.1 µM
TGI [8]: > 100 µM
GI50 [9]: 2.55 µM
TGI [9]: 10.7 µM
GI50 [10]: 1.71 µM
TGI [10]: 3.78 µM
GI50 [11]: 2.2 µM
TGI [11]: 6.83 µM
GI50 [12]: 3.16 µM
TGI [12]: 11.8 µM
GI50 [13]: 2.57 µM
TGI [13]: 16.1 µM
GI50 [14]: 1.39 µM
TGI [14]: 5.17 µM
GI50 [15]: 1.74 µM
TGI [15]: 3.79 µM
GI50 [16]: 2.8 µM
TGI [16]: > 100 µM
GI50 [17]: 1.68 µM
TGI [17]: 4.28 µM
GI50 [18]: 4.57 µM
TGI [18]: 60.6 µM
GI50 [19]: 1.97 µM
TGI [19]: 6.62 µM
GI50 [20]: 3.49 µM
TGI [20]: 11.9 µM
GI50 [21]: 3.5 µM
TGI [21]: 18.6 µM
GI50 [22]: 2.73 µM
TGI [22]: 11.9 µM
GI50 [23]: 2.54 µM
TGI [23]: 8.45 µM
GI50 [24]: 2.92 µM
TGI [24]: 14 µM
GI50 [25]: 1.88 µM
TGI [25]: 17 µM
GI50 [26]: 3.08 µM
TGI [26]: 12.9 µM
GI50 [27]: 2.02 µM
TGI [27]: 6.44 µM
GI50 [28]: 2.94 µM
TGI [28]: 11.5 µM
GI50 [29]: 2.56 µM
TGI [29]: > 100 µM
GI50 [30]: 2.41 µM
TGI [30]: 7.49 µM
GI50 [31]: 1.5 µM
TGI [31]: 3.11 µM
GI50 [32]: 2.03 µM
TGI [32]: 8.27 µM
GI50 [33]: 2.93 µM
TGI [33]: 12.6 µM
GI50 [34]: 2.75 µM
TGI [34]: 10.9 µM
GI50 [35]: 2.79 µM
TGI [35]: 13.2 µM
GI50 [36]: 1.58 µM
TGI [36]: 3.75 µM
GI50 [37]: 1.78 µM
TGI [37]: 17 µM
GI50 [38]: 1.76 µM
TGI [38]: 6.54 µM
GI50 [39]: 2.46 µM
TGI [39]: 11.3 µM
GI50 [40]: 2.91 µM
TGI [40]: 12 µM
GI50 [41]: 9.3 µM
TGI [41]: 26.7 µM
GI50 [42]: 3.72 µM
TGI [42]: 16.1 µM
GI50 [43]: 1.43 µM
TGI [43]: 3.5 µM
GI50 [44]: 5.69 µM
TGI [44]: 37.1 µM
GI50 [45]: 3.07 µM
TGI [45]: > 100 µM
GI50 [46]: 3.15 µM
TGI [46]: 13.3 µM
GI50 [47]: 1.61 µM
TGI [47]: 6.17 µM
GI50 [48]: 2.85 µM
TGI [48]: 10.3 µM
GI50 [49]: 4.08 µM
TGI [49]: 43.6 µM
GI50 [50]: 1.46 µM
TGI [50]: 3.28 µM
GI50 [51]: 3.26 µM
TGI [51]: 14.1 µM
GI50 [52]: 10.5 µM
TGI [52]: 36.8 µM
GI50 [53]: 3.51 µM
TGI [53]: 15.1 µM
GI50 [54]: 2.33 µM
TGI [54]: 12.6 µM
GI50 [55]: 2.18 µM
TGI [55]: 7.94 µM
GI50 [56]: 2.41 µM
TGI [56]: 8.77 µM
GI50 [57]: 3.19 µM
TGI [57]: 12.5 µM
GI50 [58]: 1.49 µM
TGI [58]: 2.9 µM
GI50 [59]: 3.27 µM
TGI [59]: 14.8 µM
